Assay results from article PMC8728736, “A Reactivity-Based ^18F-Labeled Probe for PET Imaging of Oxidative Stress in Chemotherapy-Induced Cardiotoxicity” (Molecular Pharmaceutics, 2021).

Experiments:
[1] = Vial stability by radio-HPLC; format: physicochemical; conditions: room temperature, 4 h
Description: ^18F-FPBT (1–4 MBq) in 100% ethanol or 5% ethanol in PBS containing sodium ascorbate (0.01 mg/mL) was kept at room temperature for 4 h and then analyzed by radio-HPLC.

[2] = Reactivity of 18F-FPBT to reactive oxygen species: tert-butoxy radical; conditions: 100 μM, 5 min
Description: (§1) ^18F-FPBT (0.5–2.0 MBq) was reacted with potassium superoxide (source of superoxide, 1 mg), hydrogen peroxide (100 μM), Fenton-reaction-generated hydroxyl radicals (100 μM), iron(II) sulfate heptahydrate (100 μM), tert-butyl hydroperoxide (100 μM), tert-butoxy radical (100 μM), and 3-morpholinosydnomine (source of peroxynitrite (100 μM)) for 5 min or diethylamine NONOate (source of nitric oxide, 100 μM) for 30 min at room temperature, after which it was subjected to radio-HPLC analysis and % oxidation was calculated.

[3] = Reactivity of 18F-FPBT to reactive oxygen species: nitric oxide; conditions: diethylamine NONOate 100 μM, 30 min
Description: as §1

[4] = Reactivity of 18F-FPBT to reactive oxygen species: hydroxyl radical; conditions: Fenton-reaction-generated hydroxyl radicals 100 μM, 5 min
Description: as §1

[5] = PET/CT imaging in rat model of doxorubicin-induced cardiotoxicity; format: in vivo, Wistar rats; conditions: PET, 30 min scan, doxorubicin n = 6, saline n = 4
Description: Male Wistar rats (280–300 g) were used in all experiments. Subcutaneous 7 day osmotic pumps (Alzet), containing either doxorubicin (Cambridge Bioscience, 30 mg/kg cumulative dose) or vehicle (sterile 0.9% NaCl), were inserted into rats under 2% isoflurane in 100% oxygen.
Wistar rats that had received either doxorubicin treatment (male, 267 ± 19 g, n = 6) or saline (male, 303 ± 9 g, n = 4) via osmotic pumps for 7 days were injected with ^18F-FPBT (2.6 ± 1.5 MBq) via the tail vein on the PET/CT scanner bed. The time of injection coincided with the beginning of PET acquisition in order to obtain dynamic tracer uptake information. PET scans with the chest area in the field of vision were acquired for 30 min, followed by a CT scan, after which the animals were sacrificed and organs harvested, weighed, and gamma-counted as for the biodistribution protocol. The hearts were frozen in liquid nitrogen for gamma counting and oxidative stress biomarker assays. The PET data was reconstructed into three frames: 0–3 min, 3–10 min, and 10–30 min. For the time–activity curve, the PET data was reconstructed into 1 min per frame in the first 5 min and then 5 min per frame between 5 and 30 min. […] Radioactivity uptake in the heart was calculated as a standard uptake value ratio (SUVR) between left ventricle and blood. […]

[6] = Lipophilicity, partition between 1-octanol and PBS; format: physicochemical; conditions: 1-octanol/PBS, pH 7.4, 1-octanol/PBS pH 7.4, shake-flask, n = 6; read-out: LogD
Description: The lipophilicity of ^18F-FPBT and ^18F-FPBT-Ox was determined by a conventional partition method between 1-octanol and phosphate buffered saline (PBS), pH 7.4. 1-Octanol was presaturated with PBS before use. The radiotracer (∼2 KBq) was added to a mixture of PBS (200 μL) and 1-octanol (200 μL) in a 1.5 mL Eppendorf vial (n = 6). The mixture was vigorously agitated at rt for 5 min and then centrifuged at 3000 g for 10 min. A 100 μL aliquot from each layer was drawn for measurement in a gamma counter. The LogDoct/PBS was calculated as follows: log [(cpm in the 1-octanol layer – cpm 1-octanol blank)/(cpm in the PBS layer – cpm PBS blank)].

[7] = Reactivity of 18F-FPBT to other biologically relevant ROS; conditions: ROS other than superoxide
Description: as §1

[8] = Post-mortem biodistribution in healthy rats; format: in vivo, Wistar rats; conditions: for Ex vivo biodistribution, Blood / Ex vivo biodistribution, Bone / Ex vivo biodistribution, Brain / Ex vivo biodistribution, Heart / Ex vivo biodistribution, Kidney / Ex vivo biodistribution, Large Intestine / Ex vivo biodistribution, Liver / Ex vivo biodistribution, Lung / Ex vivo biodistribution, Muscle / Ex vivo biodistribution, Spleen / Ex vivo biodistribution, Urine / Ex vivo biodistribution, Small Intestine: healthy rats, mean ± SD, n = 3
Description: Wistar rats (male, 319 ± 20 g) were injected intravenously via the tail vein with either ^18F-FPBT (1.0 ± 0.4 MBq) or ^18F-FPBT-Ox (1.1 ± 0.5 MBq). The animals were sacrificed by cervical dislocation at 1, 5, or 30 min postinjection (n = 3/group). Organs and tissues of interest were harvested and weighed, and the radioactivity was measured in a gamma counter. Organ uptake was calculated as the percentage injected dose per gram of tissue mass (% ID/g). Data are reported as mean ± SD.

[18F]CCCN1c2ccccc2SC1c1ccccc1 (centres unmarked) [^18F-FPBT, 3-(3-[^18F]Fluoropropyl)-2-phenyl-2,3-dihydrobenzo[d]thiazole]
Vial stability ([1]; 5% ethanol in PBS with ascorbic acid (0.01 mg/mL)): stable
Vial stability ([1]; pure ethanol): stable
Oxidation by tert-butoxy radical [2]: no oxidation was observed
Reactivity to nitric oxide [3]: some reactivity
Reactivity to hydroxyl radical [4]: inert
SUVR LV/blood (heart uptake) of doxorubicin-treated rats compared to vehicle control group [5]: statistically significantly (p < 0.05) higher
SUVR LV/blood (heart uptake) of doxorubicin-treated rats compared to vehicle control group ([5]; listed as 18F-FBPT): significantly higher (P < 0.05) uptake
LogD [6]: 1 ± 0.08
Reactivity to other biologically relevant ROS [7]: little or no reactivity
Route of clearance / excretion, in words ([8]; healthy Wistar rats, iv): excreted by both renal and hepatobiliary routes
Uptake by major organs (brain, heart, lung, spleen), in words ([8]; healthy Wistar rats, iv): rapid uptake
Ex vivo biodistribution, Blood ([8]; iv, 1 min): 0.12 ± 0.05 % ID/g
Ex vivo biodistribution, Bone ([8]; iv, 1 min): 0.14 ± 0.01 % ID/g
Ex vivo biodistribution, Brain ([8]; iv, 1 min): 0.57 ± 0.04 % ID/g
Ex vivo biodistribution, Heart ([8]; iv, 1 min): 1.33 ± 0.15 % ID/g
Ex vivo biodistribution, Kidney ([8]; iv, 1 min): 1.58 ± 0.11 % ID/g
Ex vivo biodistribution, Large Intestine ([8]; iv, 1 min): 0.21 ± 0.03 % ID/g
Ex vivo biodistribution, Liver ([8]; iv, 1 min): 1.52 ± 0.25 % ID/g
Ex vivo biodistribution, Lung ([8]; iv, 1 min): 0.66 ± 0.15 % ID/g
Ex vivo biodistribution, Muscle ([8]; iv, 1 min): 0.08 ± 0.03 % ID/g
Ex vivo biodistribution, Spleen ([8]; iv, 1 min): 0.67 ± 0.09 % ID/g
Ex vivo biodistribution, Urine ([8]; iv, 1 min): 0.02 ± 0.01 % ID/g
Ex vivo biodistribution, Blood ([8]; iv, 5 min): 0.06 ± 0.00 % ID/g
Ex vivo biodistribution, Bone ([8]; iv, 5 min): 0.18 ± 0.18 % ID/g
Ex vivo biodistribution, Brain ([8]; iv, 5 min): 0.33 ± 0.04 % ID/g
Ex vivo biodistribution, Heart ([8]; iv, 5 min): 0.37 ± 0.08 % ID/g
Ex vivo biodistribution, Kidney ([8]; iv, 5 min): 0.60 ± 0.27 % ID/g
Ex vivo biodistribution, Large Intestine ([8]; iv, 5 min): 0.13 ± 0.02 % ID/g
Ex vivo biodistribution, Liver ([8]; iv, 5 min): 1.75 ± 0.19 % ID/g
Ex vivo biodistribution, Lung ([8]; iv, 5 min): 0.34 ± 0.03 % ID/g
Ex vivo biodistribution, Muscle ([8]; iv, 5 min): 0.05 ± 0.03 % ID/g
Ex vivo biodistribution, Small Intestine ([8]; iv, 5 min): 0.53 ± 0.31 % ID/g
Ex vivo biodistribution, Spleen ([8]; iv, 5 min): 0.18 ± 0.01 % ID/g
Ex vivo biodistribution, Urine ([8]; iv, 5 min): 1.22 ± 0.89 % ID/g
Ex vivo biodistribution, Blood ([8]; iv, 30 min): 0.03 ± 0.00 % ID/g
Ex vivo biodistribution, Bone ([8]; iv, 30 min): 0.13 ± 0.02 % ID/g
Ex vivo biodistribution, Brain ([8]; iv, 30 min): 0.06 ± 0.01 % ID/g
Ex vivo biodistribution, Heart ([8]; iv, 30 min): 0.20 ± 0.04 % ID/g
Ex vivo biodistribution, Kidney ([8]; iv, 30 min): 0.17 ± 0.00 % ID/g
Ex vivo biodistribution, Large Intestine ([8]; iv, 30 min): 0.10 ± 0.03 % ID/g
Ex vivo biodistribution, Liver ([8]; iv, 30 min): 0.47 ± 0.13 % ID/g
Ex vivo biodistribution, Lung ([8]; iv, 30 min): 0.18 ± 0.01 % ID/g
Ex vivo biodistribution, Muscle ([8]; iv, 30 min): 0.08 ± 0.02 % ID/g
Ex vivo biodistribution, Small Intestine ([8]; iv, 30 min): 5.01 ± 0.90 % ID/g
Ex vivo biodistribution, Spleen ([8]; iv, 30 min): 0.05 ± 0.01 % ID/g
Ex vivo biodistribution, Urine ([8]; iv, 30 min): 3.79 ± 2.12 % ID/g
Defluorination in vivo (radioactivity accumulation in the bone) ([8]; rats and mice): inert toward defluorination
